Measured values as given in US20240150362A1, “Substituted Pyrrolotriazines” (Molecure S.A., priority 2022, published 2024).
Counter-ions that a name gives are not always drawn.

target: T1, full-length USP7 (Homo sapiens, UniProt Q93009); test: Enzymatic assay to determine % inhibition of USP7 activity at 1 μM test compound (Ubiquitin-Rhodamine 110 cleavage); assay type: biochemical; conditions: 1 μM of the test compound; given where IC50 has not been determined yet; mean of two repetitions
T1 construct: A 45 μl reaction volume containing full-length USP7 (0.5-1.0 nM)
Experimental: Enzymatic Assay to Determine % Value of Inhibition […] Activity at 1 μM […]
A 45 μl reaction volume containing full-length USP7 (0.5-1.0 nM) in 50 mM HEPES pH 7.5, 150 mM NaCl, 2 mM DTT, 1 mg/ml BSA and 0.05% Tween20 (DUB assay buffer) was assembled in wells of 96 well half area black flat bottom plates. All test compounds were first dissolved to 30 mM stocks in DMSO and subsequently introduced to enzyme 15 min after USP7 incubation with DTT at room temperature. The final concentration of tested compounds was 1 μM. The enzymatic reaction was started by adding 0.5 μM Ubiquitin-Rhodamine 110 (final concentration) and allowed to proceed for 30-60 min at 25° C., 250 RPM shaking before Rhodamine fluorescence (485 nm excitation/535 nm emission) was measured using Tecan Spark M10 plate reader. Percentage of inhibition at 1 μM was determined by the mean of two repetitions for these concentrations using Microsoft Excel software.

T1 sequence (Q93009 whole entry): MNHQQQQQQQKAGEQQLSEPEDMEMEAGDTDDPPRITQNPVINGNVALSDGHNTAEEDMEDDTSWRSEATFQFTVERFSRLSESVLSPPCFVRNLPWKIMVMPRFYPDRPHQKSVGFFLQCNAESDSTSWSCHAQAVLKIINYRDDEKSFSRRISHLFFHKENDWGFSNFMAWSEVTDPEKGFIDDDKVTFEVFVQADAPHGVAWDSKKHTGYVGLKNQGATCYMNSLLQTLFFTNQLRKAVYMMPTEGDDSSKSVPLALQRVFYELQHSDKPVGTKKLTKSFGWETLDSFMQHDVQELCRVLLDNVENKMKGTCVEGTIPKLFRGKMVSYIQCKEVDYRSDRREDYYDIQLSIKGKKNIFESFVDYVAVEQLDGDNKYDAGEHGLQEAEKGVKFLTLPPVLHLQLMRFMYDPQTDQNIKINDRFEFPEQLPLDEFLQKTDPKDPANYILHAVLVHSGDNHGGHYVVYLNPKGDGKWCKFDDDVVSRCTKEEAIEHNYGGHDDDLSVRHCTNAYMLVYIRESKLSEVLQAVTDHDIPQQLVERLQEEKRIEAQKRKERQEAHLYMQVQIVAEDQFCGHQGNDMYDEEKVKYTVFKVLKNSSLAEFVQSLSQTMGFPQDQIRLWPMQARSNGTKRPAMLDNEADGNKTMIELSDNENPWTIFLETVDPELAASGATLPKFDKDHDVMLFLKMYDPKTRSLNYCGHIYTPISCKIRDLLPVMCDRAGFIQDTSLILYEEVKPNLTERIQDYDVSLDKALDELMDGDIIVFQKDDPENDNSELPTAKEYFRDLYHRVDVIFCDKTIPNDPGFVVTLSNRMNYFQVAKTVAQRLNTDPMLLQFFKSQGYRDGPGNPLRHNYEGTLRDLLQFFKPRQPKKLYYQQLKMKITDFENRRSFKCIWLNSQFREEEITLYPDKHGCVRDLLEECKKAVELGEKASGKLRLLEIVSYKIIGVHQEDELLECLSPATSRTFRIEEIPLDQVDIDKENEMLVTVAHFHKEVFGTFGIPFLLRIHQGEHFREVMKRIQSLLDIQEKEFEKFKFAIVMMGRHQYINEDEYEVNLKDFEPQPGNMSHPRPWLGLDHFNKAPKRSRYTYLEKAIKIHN

Row | Compound | inhibition at 1 µM [%]
1 | Cc1cc(Cl)cc(-c2ncnn3cc(Cn4c(=O)cc[nH]c4=O)cc23)c1CC1CNC[C@H](C)O1 (single isomer, unassigned) [Example 121, dihydrochloride] | 50 to 70
2 | Cc1cc(Cl)cc(-c2ncnn3cc(Cn4c(=O)ccn(CC(=O)O)c4=O)cc23)c1C[C@@H]1CNCCO1 (single isomer, unassigned) [Example 125, hydrochloride] | 20 to 49
3 | Cc1cc(Cl)cc(-c2ncnn3cc(CN4C(=O)C5C(C4=O)C5(C)C)cc23)c1O[C@@H]1CC[C@@H](C)NC1 (stereo partly drawn) [Example 3, 3-((4-(5-chloro-3-methyl-2-(((3R,6R)-6-methylpiperidin-3-yl)oxy)phenyl)pyrrolo[2,1-f][1,2,4]triazin-6-yl)methyl)-6,6-dimethyl-3-azabicyclo[3.1.0]hexane-2,4-dione hydrochloride] | 20 to 49
4 | Cc1cc(Cl)cc(-c2ncnn3cc(CN4C(=O)C5C(C4=O)C5(C)C)cc23)c1OC1CCNCC1 (centres unmarked) [Example 4, 3-((4-(5-chloro-3-methyl-2-(piperidin-4-yloxy)phenyl)pyrrolo[2,1-f][1,2,4]triazin-6-yl)methyl)-6,6-dimethyl-3-azabicyclo[3.1.0]hexane-2,4-dione hydrochloride] | 50 to 70
5 | CC1(C)C2C(=O)N(Cc3cc4c(-c5cc(C(F)(F)F)cc6ccn(C7CCNC7)c56)ncnn4c3)C(=O)C21 (centres unmarked) [Example 5, 6,6-dimethyl-3-((4-(1-(pyrrolidin-3-yl)-5-(trifluoromethyl)-1H-indol-7-yl)pyrrolo[2,1-f][1,2,4]triazin-6-yl)methyl)-3-azabicyclo[3.1.0]hexane-2,4-dione 2,2,2-trifluoroacetate] | 20 to 49
6 | Cc1cc(Cl)cc(-c2ncnn3cc(CN4C(=O)C5C(C4=O)C5(C)C)cc23)c1O[C@@H]1CN[C@H](C(=O)O)C1 (stereo partly drawn) [Example 7, (2S,4S)-4-(4-chloro-2-(6-((6,6-dimethyl-2,4-dioxo-3-azabicyclo[3.1.0]hexan-3-yl)methyl)pyrrolo[2,1-f][1,2,4]triazin-4-yl)-6-methylphenoxy)pyrrolidine-2-carboxylic acid hydrochloride] | < 20
7 | Cc1cc(Cl)cc(-c2ncnn3cc(CN4C(=O)C5C(C4=O)C5(C)C)cc23)c1C(=O)N1CC(F)(F)C1 (centres unmarked) [Example 8, 3-((4-(5-chloro-2-(3,3-difluoroazetidine-1-carbonyl)-3-methylphenyl)pyrrolo[2,1-f][1,2,4]triazin-6-yl)methyl)-6,6-dimethyl-3-azabicyclo[3.1.0]hexane-2,4-dione hydrochloride] | 20 to 49
8 | Cc1cc(Cl)cc(-c2ncnn3cc(CN4C(=O)C5C(C4=O)C5(C)C)cc23)c1OCCN (centres unmarked) [Example 9, 3-((4-(2-(2-aminoethoxy)-5-chloro-3-methylphenyl)pyrrolo[2,1-f][1,2,4]triazin-6-yl)methyl)-6,6-dimethyl-3-azabicyclo[3.1.0]hexane-2,4-dione hydrochloride] | 50 to 70
9 | Cc1cc(Cl)cc(-c2ncnn3cc(CN4C(=O)C5C(C4=O)C5(C)C)c(C)c23)c1O[C@H]1CCCNC1 (stereo partly drawn) [Example 12, 3-((4-(5-chloro-3-methyl-2-(((S)-piperidin-3-yl)oxy)phenyl)-5-methylpyrrolo[2,1-f][1,2,4]triazin-6-yl)methyl)-6,6-dimethyl-3-azabicyclo[3.1.0]hexane-2,4-dione hydrochloride] | 50 to 70
10 | CCOC(=O)c1cc2c(-c3cc(Cl)cc(C)c3O[C@H]3CCCNC3)ncnn2c1 [Example 15, ethyl (S)-4-(5-chloro-3-methyl-2-(piperidin-3-yloxy)phenyl)pyrrolo[2,1-f][1,2,4]triazine-6-carboxylate hydrochloride] | 20 to 49
11 | Cc1cc(Cl)cc(-c2ncnn3cc(C(=O)O)cc23)c1O[C@H]1CCCNC1 [Example 16, (S)-4-(5-chloro-3-methyl-2-(piperidin-3-yloxy)phenyl)pyrrolo[2,1-f][1,2,4]triazine-6-carboxylic acid hydrochloride] | < 20
